The test system of this experiment is RKO p21 uninduced (proliferating) colon adenocarcinoma cells. Put plainly: Alamar Blue cell viability assay, RKO p21 uninduced (proliferating). Format: cell-based. The note with it: Homo sapiens, Table B3, anti-proliferative/cytotoxic activity, 72 hours, read-out: −log EC50 RKO p21 uninduced (proliferating) (converted). As for the experimental part: The anti-proliferative/cytotoxic activity of the compounds described herein can be tested on subclones of RKO human colon adenocarcinoma cells (Schmidt et al., Oncogene 19, 2423-2429; 2000) using the Alamar Blue cell viability assay (described in O'Brien et al. Eur J Biochem 267, 5421-5426, 2000). The compounds are dissolved as 10 mM solutions in DMSO and subsequently diluted in semi-logarithmic steps. DMSO dilutions are further diluted 1:100 into Dulbecco's modified Eagle's medium (DMEM) containing 10% fetal calf serum to a final concentration twice as much as the final concentration in the test. RKO subclones are seeded into 96 well flat bottom plates at a density of 4000 cells per well in a volume of 50 μl per well. 24 hours after seeding the 50 μl each of the compound dilutions in DMEM medium are added into each well of the 96 well plate. Each compound dilution is tested as triplicates. Wells containing untreated control cells are filled with 50 μl DMEM medium containing 1% DMSO. The cells are then incubated with the substances for 72 hours at 37° C. in a humidified atmosphere containing 5% carbon dioxide. To determine the viability of the cells, 10 μl of an Alamar Blue solution (Biosource) are added and the fluorescence is measured at an extinction of 544 nm and an emission of 590 nm. For the calculation of the cell viability the emission value from untreated cells is set as 100% viability and the emission rates of treated cells are set in relation to the values of untreated cells. Viabilities are expressed as % values. The Graphpad Prism program is used for the calculation of EC50 values for anti-proliferative/cytotoxic activity out of the obtained dose-response curves.
To determine the cell cycle specific mode of action, subclones of RKO colon adenocarcinoma cells (RKOp21 or RKOp27 as described by Schmidt et al. in Oncogene 19, 2423-2429; 2000) are seeded into 96 well flat bottom plates at a density of 16000 cells per well in a volume of 50 μl per well in DMEM growth medium with 10% FCS containing 10 μM Ponasterone A. 24 hours after seeding the 50 μl each of the compound dilutions in DMEM medium are added into each well of the 96-well plate. Each compound dilution is tested as triplicates. Wells containing untreated control cells are filled with 50 μl DMEM medium containing 1% DMSO. The cells are then incubated with the substances for 72 hours at 37° C. in a humidified atmosphere containing 5% carbon dioxide. To determine the viability of the cells, 10 μl of an Alamar Blue solution (Biosource) are added and the fluorescence is measured at an extinction of 544 nm and an emission of 590 nm. For the calculation of the cell viability the emission value from untreated cells is set as 100% viability and the emission rates of treated cells are set in relation to the values of untreated cells. Viabilities are expressed as % values. The Graphpad Prism program (GraphPad Software, Inc) is used for the calculation of EC50 values out of the obtained dose-response curves. Viability is compared of proliferating cells grown in the absence of the inducer Ponasterone A, versus viability of cells arrested by the expression of ectopic p27Kip1 induced by Ponasterone A.
Representative values for anti-proliferation/cytotoxicity [measured as −log EC50 (mol/l)] determined in the aforementioned assays follow from the following tables B1, B2 and B3, in which the numbers of the compounds correspond to the numbers of the examples.
As for `C[C@@]12Cc3c([nH]c4ccc(OC(F)F)cc34)[C@@H](c3cccc(O)c3)N1C(=O)N(CCCN1CCCC1)C2=O` (racemic) [Example 237, (3aSR,10RS)-6-(1,1-Difluoro-methoxy)-10-(3-hydroxy-phenyl)-3a-methyl-2-(3-pyrrolidin-1-yl-propyl)-3a,4,9,10-tetrahydro-2,9,10a-triaza-cyclopenta[b]fluorene-1,3-dione], the EC50 was at most 39.8 nM.
Under `C[C@@]12Cc3c([nH]c4ccc(Cl)cc34)[C@@H](c3cccc(O)c3)N1C(=O)N(CCCN1CCCCCC1)C2=O` (racemic) [Example 180, (3aSR,10RS)-2-(3-Azepan-1-yl-propyl)-6-chloro-10-(3-hydroxy-phenyl)-3a-methyl-3a,4,9,10-tetrahydro-2,9,10a-triaza-cyclopenta[b]fluorene-1,3-dione] stands at most 39.8 nM.
Under `CNCCN1C(=O)N2[C@H](c3cccc(O)c3)c3[nH]c4ccc(OC)c(F)c4c3C[C@@]2(C)C1=O` (racemic) [Example 406, (3aSR,10RS)-5-Fluoro-10-(3-hydroxy-phenyl)-6-methoxy-3a-methyl-2-(2-methylamino-ethyl)-3a,4,9,10-tetrahydro-2,9,10a-triaza-cyclopenta[b]fluorene-1,3-dione] stands 39.8 to 251 nM; under `C#CCNCCCN1C(=O)N2[C@H](c3cccc(O)c3)c3[nH]c4cc(F)c(OC)cc4c3C[C@@]2(C)C1=O` (racemic) [Example 309, (3aSR,10RS)-7-Fluoro-10-(3-hydroxy-phenyl)-6-methoxy-3a-methyl-2-(3-prop-2-ynylamino-propyl)-3a,4,9,10-tetrahydro-2,9,10a-triaza-cyclopenta[b]fluorene-1,3-dione], 39.8 to 251 nM.
Under `C#CCNCCN1C(=O)N2[C@H](c3cccc(O)c3)c3[nH]c4ccc(OC(F)F)cc4c3C[C@@]2(C)C1=O` (racemic) [Example 287, (3aSR,10RS)-6-(1,1-Difluoro-methoxy)-10-(3-hydroxy-phenyl)-3a-methyl-2-(2-prop-2-ynylamino-ethyl)-3a,4,9,10-tetrahydro-2,9,10a-triaza-cyclopenta[b]fluorene-1,3-dione] stands 39.8 to 251 nM.
With `CCNCCN1C(=O)N2[C@H](c3cccc(O)c3)c3[nH]c4ccc(Br)cc4c3C[C@@]2(C)C1=O` (racemic) [Example 393, (3aSR,10RS)-6-Bromo-2-(2-ethylamino-ethyl)-10-(3-hydroxy-phenyl)-3a-methyl-3a,4,9,10-tetrahydro-2,9,10a-triaza-cyclopenta[b]fluorene-1,3-dione], the EC50 was at most 39.8 nM.
Under `C[C@@]12Cc3c([nH]c4ccc(Br)cc34)[C@@H](c3cccc(O)c3)N1C(=O)N(CCCN1CCCC1)C2=O` (racemic) [Example 219, (3aSR,10RS)-6-Bromo-10-(3-hydroxy-phenyl)-3a-methyl-2-(3-pyrrolidin-1-yl-propyl)-3a,4,9,10-tetrahydro-2,9,10a-triaza-cyclopenta[b]fluorene-1,3-dione] stands at most 39.8 nM; under `C=CCNCCN1C(=O)N2[C@H](c3cccc(O)c3)c3[nH]c4ccc(OCC)cc4c3C[C@@]2(C)C1=O` (racemic) [Example 157, (3aSR,10RS)-2-(2-Allylamino-ethyl)-6-ethoxy-10-(3-hydroxy-phenyl)-3a-methyl-3a,4,9,10-tetrahydro-2,9,10a-triaza-cyclopenta[b]fluorene-1,3-dione], at most 39.8 nM.
Under `CN(CCO)CCN1C(=O)N2[C@H](c3cccc(O)c3)c3[nH]c4cc(F)c(Cl)cc4c3C[C@@]2(C)C1=O` (racemic) [Example 348, (3aSR,10RS)-6-Chloro-7-fluoro-2-{2-[(2-hydroxy-ethyl)-methyl-amino]-ethyl}-10-(3-hydroxy-phenyl)-3a-methyl-3a,4,9,10-tetrahydro-2,9,10a-triaza-cyclopenta[b]fluorene-1,3-dione] stands 39.8 to 251 nM; under `C[C@@]12Cc3c([nH]c4ccc(OC(F)F)cc34)[C@@H](c3cccc(O)c3)N1C(=O)N(CCCN1CCCCC1)C2=O` (racemic) [Example 239, (3aSR,10RS)-6-(1,1-Difluoro-methoxy)-10-(3-hydroxy-phenyl)-3a-methyl-2-(3-piperidin-1-yl-propyl)-3a,4,9,10-tetrahydro-2,9,10a-triaza-cyclopenta[b]fluorene-1,3-dione], at most 39.8 nM; under `CCOc1ccc2[nH]c3c(c2c1)C[C@@]1(C)C(=O)N(CCCN2CC=CC2)C(=O)N1[C@@H]3c1cccc(O)c1` (racemic) [Example 222, (3aSR,10RS)-2-[3-(2,5-Dihydro-pyrrol-1-yl)-propyl]-6-ethoxy-10-(3-hydroxy-phenyl)-3a-methyl-3a,4,9,10-tetrahydro-2,9,10a-triaza-cyclopenta[b]fluorene-1,3-dione], 39.8 to 251 nM.
The same measure for `CCN(CCCN1C(=O)N2[C@H](c3cccc(O)c3)c3[nH]c4ccc(Cl)cc4c3C[C@@]2(C)C1=O)CCOC` (racemic) [Example 397, (3aSR,10RS)-6-Chloro-2-{3-[ethyl-(2-methoxy-ethyl)-amino]-propyl}-10-(3-hydroxy-phenyl)-3a-methyl-3a,4,9,10-tetrahydro-2,9,10a-triaza-cyclopenta[b]fluorene-1,3-dione]: at most 39.8 nM; for `CCOc1ccc2[nH]c3c(c2c1)C[C@@]1(C)C(=O)N(CCNCCOC)C(=O)N1[C@@H]3c1cccc(O)c1` (racemic) [Example 160, (3aSR,10RS)-6-Ethoxy-10-(3-hydroxy-phenyl)-2-[2-(2-methoxy-ethylamino)-ethyl]-3a-methyl-3a,4,9,10-tetrahydro-2,9,10a-triaza-cyclopenta[b]fluorene-1,3-dione]: 39.8 to 251 nM; for `COc1cc2c3c([nH]c2cc1F)[C@@H](c1cccc(O)c1)N1C(=O)N(CCCNCCO)C(=O)[C@]1(C)C3` (racemic) [Example 305, (3aSR,10RS)-7-Fluoro-2-[3-(2-hydroxy-ethylamino)-propyl]-10-(3-hydroyx-phenyl)-6-methoxy-3a-methyl-3a,4,9,10-tetrahydro-2,9,10a-triaza-cyclopenta[b]fluorene-1,3-dione]: 39.8 to 251 nM.
For `C[C@@]12Cc3c([nH]c4cc(F)c(Cl)cc34)[C@@H](c3cccc(O)c3)N1C(=O)N(CCN1CCCCC1)C2=O` (racemic) [Example 356, (3aSR,10RS)-6-Chloro-7-fluoro-10-(3-hydroxy-phenyl)-3a-methyl-2-(2-piperidin-1-yl-ethyl)-3a,4,9,10-tetrahydro-2,9,10a-triaza-cyclopenta[b]fluorene-1,3-dione], the EC50 is 39.8 to 251 nM.
Under `C=CCN(C)CCN1C(=O)N2[C@H](c3cccc(O)c3)c3[nH]c4cc(F)c(OC)cc4c3C[C@@]2(C)C1=O` (racemic) [Example 452, (3aSR,10RS)-2-[2-(Allyl-methyl-amino)-ethyl]-7-fluoro-10-(3-hydroxy-phenyl)-6-methoxy-3a-methyl-3a,4,9,10-tetrahydro-2,9,10a-triaza-cyclopenta[b]fluorene-1,3-dione] stands 39.8 to 251 nM; under `CC(C)NCCN1C(=O)N2[C@H](c3cccc(O)c3)c3[nH]c4ccc(OC(F)F)cc4c3C[C@@]2(C)C1=O` (racemic) [Example 268, (3aSR,10RS)-6-(1,1-Difluoro-methoxy)-10-(3-hydroxy-phenyl)-2-(2-isopropylamino-ethyl)-3a-methyl-3a,4,9,10-tetrahydro-2,9,10a-triaza-cyclopenta[b]fluorene-1,3-dione], at most 39.8 nM.

The record behind these values is US8530493B2, “Indolopyridines as Eg5 kinesin modulators” (4SC AG, priority 2006, dated 2013).
